Measurements as given in ChEMBL document CHEMBL5696442, “Discovery of type II inhibitors of TGFβ-activated kinase 1 (TAK1) and mitogen-activated protein kinase kinase kinase kinase 2 (MAP4K2)” (J Med Chem, 2015).

What was measured:
[1] = target: Misshapen-like kinase 1 (Homo sapiens) (UniProt Q8N4C8); test: Inhibition of ZC3/MINK K2 labeling site in human Huh-7 cells at 10 uM by KiNativ Profiling analysis relative to control; format: cell-based
[2] = target: Dual specificity mitogen-activated protein kinase kinase 2 (Homo sapiens) (UniProt P36507); test: Inhibition of MAP2K2 Lys1 labeling site in human A-375 cells at 0.05 uM by KiNativ Profiling analysis relative to control; format: cell-based
[3] = Inhibition of KHS1 Lys1 labeling site in human A-375 cells at 5 uM by KiNativ Profiling analysis relative to control; settings: condition cancer
[4] = target: Casein kinase II subunit alpha' (Homo sapiens) (UniProt P19784); test: Inhibition of CSNK2A2 (unknown origin) at 1 uM by Ambit Kinomescan binding assay relative to control; values are per cent of control
[5] = target: Phosphatidylinositol 4-phosphate 5-kinase type-1 gamma (Homo sapiens) (UniProt O60331); test: Inhibition of PIP5K1C (unknown origin) at 1 uM by Ambit Kinomescan binding assay relative to control; values are per cent of control
[6] = target: Activin receptor type-1-like (Homo sapiens) (UniProt P37023); test: Inhibition of ACVRL1 (unknown origin) at 1 uM by Ambit Kinomescan binding assay relative to control
[7] = tested on: Phosphatidylinositol 4,5-bisphosphate 3-kinase catalytic subunit alpha isoform (Homo sapiens), P42336 [H1047Y]; test: Inhibition of PIK3CA H1047Y mutant (unknown origin) at 1 uM by Ambit Kinomescan binding assay relative to control
[8] = target: Serine/threonine-protein kinase 24 (Homo sapiens) (UniProt Q9Y6E0); test: Inhibition of MST3 (unknown origin) at 1 uM by Ambit Kinomescan binding assay relative to control
[9] = target: T1, Serine/threonine-protein kinase LATS1 (Homo sapiens) (UniProt O95835); test: Inhibition of LATS1 (unknown origin) at 1 uM by Ambit Kinomescan binding assay relative to control
T1 sequence (whole entry): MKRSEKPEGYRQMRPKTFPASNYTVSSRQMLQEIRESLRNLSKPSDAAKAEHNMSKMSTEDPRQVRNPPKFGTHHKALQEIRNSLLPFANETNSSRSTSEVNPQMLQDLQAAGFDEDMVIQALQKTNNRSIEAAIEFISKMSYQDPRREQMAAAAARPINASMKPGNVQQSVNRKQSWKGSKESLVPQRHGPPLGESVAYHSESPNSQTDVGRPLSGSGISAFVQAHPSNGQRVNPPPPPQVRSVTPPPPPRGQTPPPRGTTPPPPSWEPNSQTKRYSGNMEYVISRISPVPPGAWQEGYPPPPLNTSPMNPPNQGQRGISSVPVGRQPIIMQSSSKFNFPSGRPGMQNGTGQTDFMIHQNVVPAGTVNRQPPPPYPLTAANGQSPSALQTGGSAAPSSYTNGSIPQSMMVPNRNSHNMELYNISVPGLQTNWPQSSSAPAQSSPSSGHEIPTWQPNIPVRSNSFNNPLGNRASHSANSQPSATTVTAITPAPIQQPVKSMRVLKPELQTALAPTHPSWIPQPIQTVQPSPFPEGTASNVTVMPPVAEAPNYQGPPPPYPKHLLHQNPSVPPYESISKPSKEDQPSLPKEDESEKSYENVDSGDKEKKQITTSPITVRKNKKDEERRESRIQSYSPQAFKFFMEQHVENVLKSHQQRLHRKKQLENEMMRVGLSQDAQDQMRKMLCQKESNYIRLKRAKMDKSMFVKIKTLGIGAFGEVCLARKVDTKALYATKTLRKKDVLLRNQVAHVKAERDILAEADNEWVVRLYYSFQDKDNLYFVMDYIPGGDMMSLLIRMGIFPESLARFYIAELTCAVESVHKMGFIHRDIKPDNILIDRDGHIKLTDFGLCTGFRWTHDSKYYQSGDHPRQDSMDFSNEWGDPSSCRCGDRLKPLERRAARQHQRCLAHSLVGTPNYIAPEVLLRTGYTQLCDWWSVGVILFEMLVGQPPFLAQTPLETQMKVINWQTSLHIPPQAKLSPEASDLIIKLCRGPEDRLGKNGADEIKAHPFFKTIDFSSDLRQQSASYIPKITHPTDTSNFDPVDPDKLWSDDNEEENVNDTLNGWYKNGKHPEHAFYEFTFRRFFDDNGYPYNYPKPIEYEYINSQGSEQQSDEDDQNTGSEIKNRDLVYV

[10] = target: T2, PAN2-PAN3 deadenylation complex subunit PAN3 (Homo sapiens) (UniProt Q58A45); test: Inhibition of PAN3 Protein Kinase Domain labeling site in human Huh-7 cell lysate at 1 uM by KiNativ Profiling analysis relative to control; format: subcellular
T2 sequence (whole entry): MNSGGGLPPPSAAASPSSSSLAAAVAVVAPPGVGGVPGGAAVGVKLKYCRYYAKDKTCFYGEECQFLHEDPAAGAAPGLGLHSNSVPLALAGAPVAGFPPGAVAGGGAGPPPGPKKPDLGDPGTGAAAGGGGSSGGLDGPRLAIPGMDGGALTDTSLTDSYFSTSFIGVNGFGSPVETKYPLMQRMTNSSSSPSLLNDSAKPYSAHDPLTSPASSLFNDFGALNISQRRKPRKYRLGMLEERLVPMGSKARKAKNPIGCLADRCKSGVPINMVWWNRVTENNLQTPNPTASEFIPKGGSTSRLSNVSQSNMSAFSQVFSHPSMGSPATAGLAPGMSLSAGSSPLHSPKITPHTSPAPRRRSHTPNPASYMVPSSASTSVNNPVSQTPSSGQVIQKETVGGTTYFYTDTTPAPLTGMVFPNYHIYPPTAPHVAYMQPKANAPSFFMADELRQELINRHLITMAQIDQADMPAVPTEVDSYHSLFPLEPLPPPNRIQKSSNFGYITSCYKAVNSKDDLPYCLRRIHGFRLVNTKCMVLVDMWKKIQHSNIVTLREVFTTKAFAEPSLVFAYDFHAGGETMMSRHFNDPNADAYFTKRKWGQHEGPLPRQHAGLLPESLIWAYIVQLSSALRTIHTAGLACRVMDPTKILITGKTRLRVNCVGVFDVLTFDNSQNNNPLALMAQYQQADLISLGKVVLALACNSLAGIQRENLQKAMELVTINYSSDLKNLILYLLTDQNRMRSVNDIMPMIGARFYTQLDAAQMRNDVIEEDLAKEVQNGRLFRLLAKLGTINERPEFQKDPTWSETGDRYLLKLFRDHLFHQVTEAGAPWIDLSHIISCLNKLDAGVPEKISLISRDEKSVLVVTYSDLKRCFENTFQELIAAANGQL

[11] = target: Serine/threonine-protein kinase Nek6 (Homo sapiens) (UniProt Q9HC98); test: Inhibition of NEK6 Lys2 labeling site harbouring DIKPANVFITATGVVK in human Huh-7 cell lysate at 1 uM by KiNativ Profiling analysis relative to control; format: subcellular
[12] = target: STE20/SPS1-related proline-alanine-rich protein kinase (Homo sapiens) (UniProt Q9UEW8); test: Inhibition of STLK3 Lys2 labeling site in human Huh-7 cells at 1 uM by KiNativ Profiling analysis relative to control; format: cell-based

Serine/threonine-protein kinase Nek6 (Homo sapiens), sequence (Q9HC98 whole entry): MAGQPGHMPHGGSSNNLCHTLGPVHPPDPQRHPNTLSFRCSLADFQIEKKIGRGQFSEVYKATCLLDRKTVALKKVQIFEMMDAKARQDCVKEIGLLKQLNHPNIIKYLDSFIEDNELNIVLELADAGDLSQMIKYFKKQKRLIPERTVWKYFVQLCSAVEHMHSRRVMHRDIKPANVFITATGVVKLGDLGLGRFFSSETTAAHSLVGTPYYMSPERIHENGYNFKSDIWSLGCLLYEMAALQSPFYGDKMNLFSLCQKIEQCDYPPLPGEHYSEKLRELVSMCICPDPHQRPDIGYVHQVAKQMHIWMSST
Phosphatidylinositol 4,5-bisphosphate 3-kinase catalytic subunit alpha isoform (Homo sapiens), P42336 [H1047Y], sequence (P42336 whole entry H1047Y, canonical isoform): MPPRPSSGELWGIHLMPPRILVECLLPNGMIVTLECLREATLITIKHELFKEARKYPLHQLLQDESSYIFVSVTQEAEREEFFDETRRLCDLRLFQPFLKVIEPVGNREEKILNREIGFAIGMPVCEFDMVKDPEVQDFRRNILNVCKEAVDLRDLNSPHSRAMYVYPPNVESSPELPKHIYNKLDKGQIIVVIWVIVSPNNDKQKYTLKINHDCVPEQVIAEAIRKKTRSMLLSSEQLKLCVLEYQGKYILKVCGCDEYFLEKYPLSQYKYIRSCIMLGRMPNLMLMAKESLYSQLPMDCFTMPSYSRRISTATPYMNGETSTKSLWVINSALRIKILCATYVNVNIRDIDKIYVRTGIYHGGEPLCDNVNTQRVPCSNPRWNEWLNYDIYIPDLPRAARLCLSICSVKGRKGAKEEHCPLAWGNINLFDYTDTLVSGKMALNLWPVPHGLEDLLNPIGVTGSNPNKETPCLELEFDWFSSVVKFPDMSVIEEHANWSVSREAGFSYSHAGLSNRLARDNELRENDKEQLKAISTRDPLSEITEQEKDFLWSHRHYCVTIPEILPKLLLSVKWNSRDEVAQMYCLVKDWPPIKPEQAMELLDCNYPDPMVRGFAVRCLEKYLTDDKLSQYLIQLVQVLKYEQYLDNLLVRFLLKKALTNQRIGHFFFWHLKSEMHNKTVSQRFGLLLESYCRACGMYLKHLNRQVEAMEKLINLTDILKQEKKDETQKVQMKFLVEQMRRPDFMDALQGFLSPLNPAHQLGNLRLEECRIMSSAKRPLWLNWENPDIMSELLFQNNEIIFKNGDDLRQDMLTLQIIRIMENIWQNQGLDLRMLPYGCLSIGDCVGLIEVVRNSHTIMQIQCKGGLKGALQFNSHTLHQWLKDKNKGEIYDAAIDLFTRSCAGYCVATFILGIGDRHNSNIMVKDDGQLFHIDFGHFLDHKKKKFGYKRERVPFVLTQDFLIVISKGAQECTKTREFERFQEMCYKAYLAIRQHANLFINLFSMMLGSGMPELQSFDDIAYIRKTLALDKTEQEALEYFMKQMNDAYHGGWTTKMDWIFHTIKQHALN
Phosphatidylinositol 4-phosphate 5-kinase type-1 gamma (Homo sapiens), sequence (O60331 whole entry): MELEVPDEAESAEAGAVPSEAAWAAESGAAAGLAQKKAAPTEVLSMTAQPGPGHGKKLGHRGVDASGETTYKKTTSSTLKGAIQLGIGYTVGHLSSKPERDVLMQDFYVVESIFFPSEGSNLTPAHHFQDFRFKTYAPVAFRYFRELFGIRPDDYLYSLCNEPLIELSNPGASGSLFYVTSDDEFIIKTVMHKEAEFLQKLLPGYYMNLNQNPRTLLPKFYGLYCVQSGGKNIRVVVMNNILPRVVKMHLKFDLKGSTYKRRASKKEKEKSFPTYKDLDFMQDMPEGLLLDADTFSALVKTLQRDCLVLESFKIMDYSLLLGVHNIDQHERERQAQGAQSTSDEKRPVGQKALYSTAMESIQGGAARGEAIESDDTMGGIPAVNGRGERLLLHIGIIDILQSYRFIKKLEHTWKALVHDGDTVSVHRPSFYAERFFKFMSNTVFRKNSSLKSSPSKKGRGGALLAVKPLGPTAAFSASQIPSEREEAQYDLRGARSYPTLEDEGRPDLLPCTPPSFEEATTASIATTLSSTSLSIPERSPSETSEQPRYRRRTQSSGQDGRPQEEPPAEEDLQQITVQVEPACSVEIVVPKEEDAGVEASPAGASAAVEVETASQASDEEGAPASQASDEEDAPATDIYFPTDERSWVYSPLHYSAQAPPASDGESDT
Serine/threonine-protein kinase 24 (Homo sapiens), sequence (Q9Y6E0 whole entry, looked up): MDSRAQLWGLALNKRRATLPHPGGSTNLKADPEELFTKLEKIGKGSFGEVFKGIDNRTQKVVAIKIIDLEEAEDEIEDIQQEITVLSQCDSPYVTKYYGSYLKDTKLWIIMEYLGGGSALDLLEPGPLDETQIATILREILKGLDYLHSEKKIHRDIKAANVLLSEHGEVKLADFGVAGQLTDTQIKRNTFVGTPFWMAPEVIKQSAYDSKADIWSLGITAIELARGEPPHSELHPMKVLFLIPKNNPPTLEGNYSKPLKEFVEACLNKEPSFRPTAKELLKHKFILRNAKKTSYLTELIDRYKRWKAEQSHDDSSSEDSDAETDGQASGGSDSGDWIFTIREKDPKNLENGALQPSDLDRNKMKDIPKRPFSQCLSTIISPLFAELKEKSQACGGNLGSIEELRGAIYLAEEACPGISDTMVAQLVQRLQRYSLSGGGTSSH
Dual specificity mitogen-activated protein kinase kinase 2 (Homo sapiens), sequence (P36507 whole entry): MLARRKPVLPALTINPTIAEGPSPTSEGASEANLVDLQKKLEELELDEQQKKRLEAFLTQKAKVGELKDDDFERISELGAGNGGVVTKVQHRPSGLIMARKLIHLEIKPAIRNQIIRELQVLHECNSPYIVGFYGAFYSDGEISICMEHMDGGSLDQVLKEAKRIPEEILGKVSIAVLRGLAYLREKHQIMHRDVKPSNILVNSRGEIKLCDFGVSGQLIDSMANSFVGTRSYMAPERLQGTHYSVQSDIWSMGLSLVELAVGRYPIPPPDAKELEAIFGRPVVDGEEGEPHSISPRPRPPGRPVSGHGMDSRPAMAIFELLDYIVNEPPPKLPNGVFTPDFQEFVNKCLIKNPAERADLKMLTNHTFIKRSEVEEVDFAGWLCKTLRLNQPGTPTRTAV
Misshapen-like kinase 1 (Homo sapiens), sequence (Q8N4C8 whole entry, looked up): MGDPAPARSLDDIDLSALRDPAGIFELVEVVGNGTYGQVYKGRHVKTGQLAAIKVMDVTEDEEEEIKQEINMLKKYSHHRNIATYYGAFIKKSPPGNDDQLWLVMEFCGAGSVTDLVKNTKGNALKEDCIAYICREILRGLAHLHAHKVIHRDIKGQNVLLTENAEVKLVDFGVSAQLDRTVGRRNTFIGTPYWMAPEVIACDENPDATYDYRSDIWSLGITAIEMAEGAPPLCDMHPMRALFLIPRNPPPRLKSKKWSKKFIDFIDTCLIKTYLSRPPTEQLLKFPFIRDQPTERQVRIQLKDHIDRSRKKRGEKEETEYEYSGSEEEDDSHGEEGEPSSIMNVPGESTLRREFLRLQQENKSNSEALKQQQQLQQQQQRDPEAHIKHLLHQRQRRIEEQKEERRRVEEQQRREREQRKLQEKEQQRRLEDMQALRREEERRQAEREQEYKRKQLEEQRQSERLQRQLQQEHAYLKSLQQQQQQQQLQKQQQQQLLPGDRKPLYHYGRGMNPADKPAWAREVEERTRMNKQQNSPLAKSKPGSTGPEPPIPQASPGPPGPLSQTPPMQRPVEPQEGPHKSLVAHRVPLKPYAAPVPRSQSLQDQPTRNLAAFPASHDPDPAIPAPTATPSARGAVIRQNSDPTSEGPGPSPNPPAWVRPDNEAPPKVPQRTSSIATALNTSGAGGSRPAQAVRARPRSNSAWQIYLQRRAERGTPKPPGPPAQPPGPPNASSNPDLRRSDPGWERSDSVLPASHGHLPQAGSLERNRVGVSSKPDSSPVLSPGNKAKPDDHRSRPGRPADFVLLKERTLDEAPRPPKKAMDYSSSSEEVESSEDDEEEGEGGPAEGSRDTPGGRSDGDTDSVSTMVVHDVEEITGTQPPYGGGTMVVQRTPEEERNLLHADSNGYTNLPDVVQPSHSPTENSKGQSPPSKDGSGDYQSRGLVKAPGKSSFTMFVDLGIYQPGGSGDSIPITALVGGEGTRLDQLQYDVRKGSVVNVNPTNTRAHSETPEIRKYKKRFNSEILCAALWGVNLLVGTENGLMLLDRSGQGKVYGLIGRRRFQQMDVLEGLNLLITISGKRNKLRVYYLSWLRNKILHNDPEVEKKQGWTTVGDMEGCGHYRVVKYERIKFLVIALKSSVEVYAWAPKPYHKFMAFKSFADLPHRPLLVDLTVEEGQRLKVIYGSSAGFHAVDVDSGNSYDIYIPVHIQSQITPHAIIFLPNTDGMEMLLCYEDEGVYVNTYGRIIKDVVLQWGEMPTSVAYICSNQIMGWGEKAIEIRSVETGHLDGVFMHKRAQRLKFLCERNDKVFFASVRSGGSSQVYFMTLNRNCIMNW
Activin receptor type-1-like (Homo sapiens), sequence (P37023 whole entry, canonical isoform): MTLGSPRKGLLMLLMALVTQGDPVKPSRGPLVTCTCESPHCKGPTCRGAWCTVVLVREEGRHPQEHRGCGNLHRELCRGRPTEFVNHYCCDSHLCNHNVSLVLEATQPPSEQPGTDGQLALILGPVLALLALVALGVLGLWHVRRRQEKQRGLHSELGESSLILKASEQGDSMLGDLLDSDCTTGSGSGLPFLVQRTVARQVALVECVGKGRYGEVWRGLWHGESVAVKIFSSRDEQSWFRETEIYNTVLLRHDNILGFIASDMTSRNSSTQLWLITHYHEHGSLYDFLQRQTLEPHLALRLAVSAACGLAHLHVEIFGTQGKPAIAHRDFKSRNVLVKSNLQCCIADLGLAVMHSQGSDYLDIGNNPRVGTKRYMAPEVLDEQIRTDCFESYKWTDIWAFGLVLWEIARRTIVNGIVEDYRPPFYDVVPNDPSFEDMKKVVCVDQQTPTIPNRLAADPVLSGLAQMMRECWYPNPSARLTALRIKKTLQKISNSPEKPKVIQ

Structure (SMILES): CCN1CCN(Cc2ccc(NC(=O)c3ccc(C)c(Oc4ccnc5[nH]ccc45)c3)cc2C(F)(F)F)CC1
- inhibition [1]: 72.6%
- inhibition [2]: 2.9%
- inhibition at 5 µM [3]: 61.3%

Structure (SMILES): CCN1CCN(Cc2ccc(NC(=O)c3ccc(C)c(/C=C/c4cnc5[nH]ccc5c4OC)c3)cc2C(F)(F)F)CC1
- residual activity [4]: 77%
- percent of control [5]: 100%
- inhibition [6]: 100%
- inhibition [7]: 71%
- inhibition [8]: 75%
- inhibition [9]: 80%

Structure (SMILES): CNc1cc(Oc2cc(C(=O)Nc3cc(N4CCN(C)CC4)cc(C(F)(F)F)c3)ccc2C)ncn1
- inhibition [10]: -2.9%
- inhibition [11]: -5%
- inhibition [12]: 57.3%
